Patent publication US8273754B2, “Substituted 1H-pyrazolo[3,4-D]pyrimidine-6-amine compounds” (ArQule, Inc., priority 2008, dated 2012)
Where two headings read alike, the source gives them in different places.

System: cancer cells
Test: MTS cell growth inhibition assay (72 hours)
Type: cell-based
In short: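 Cells in DMEM with 1% FBS, seeded 18 h, then compound-treated 72 h at 37 °C. Viability by MTS/PMS for 4 h, formazan absorbance at 492 nm; IC50 taken as concentration giving 50% absorbance drop, activity banded by percent inhibition.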

[1] = Homo sapiens, DLD-1, 72 h, DLD-1 cells, read-out: DLD-1 MTS 72 hr at 10 μM
[2] = Homo sapiens, KATO III, 72 h, KATO III cells, read-out: KATO III MTS 72 hr at 10 μM
[3] = Homo sapiens, MDA-MB-231, 72 h, MDA-MB-231 cells, read-out: MDA-MB-231 MTS 72 hr at 10 μM
[4] = Homo sapiens, NCI-H1299, 72 h, NCI-H1299 cells, read-out: NCI-H1299 MTS 72 hr at 10 μM
[5] = PaCa-2, 72 h, PACA-2 cells, read-out: PACA-2 MTS 72 hr at 10 μM

Compound	inhibition at 10 µM [1]	inhibition at 10 µM [2]	inhibition at 10 µM [3]	inhibition at 10 µM [4]	inhibition at 10 µM [5]
Cc1cc(C)c(S(=O)(=O)N2CCC(Nc3nc(N)nc4[nH]ncc34)Cc3ccccc32)c(C)c1 (centres unmarked) [Compound 173, N4-[1-(mesitylsulfonyl)-2,3,4,5-tetrahydro-1H-1-benzazepin-4-yl]-1H-pyrazolo[3,4-d]pyrimidine-4,6-diamine]	< 50%	< 50%	< 50%	< 50%	< 50%
Nc1nc(NC2CCN(S(=O)(=O)c3ccccc3)c3ccccc3C2)c2cn[nH]c2n1 (centres unmarked) [Compound 166, N^4-(1-(phenylsulfonyl)-2,3,4,5-tetrahydro-1H-benzo[b]azepin-4-yl)-1H-pyrazolo[3,4-d]pyrimidine-4,6-diamine]	< 50%	< 50%	< 50%	< 50%	< 50%
Cc1ccc(Oc2ccc(S(=O)(=O)N3CC(Nc4nc(N)nc5[nH]ncc45)Cc4ccccc43)cc2)cc1 (centres unmarked) [Compound 69, N4-(1-(4-(p-tolyloxy)phenylsulfonyl)-1,2,3,4-tetrahydroquinolin-3-yl)-1H-pyrazolo[3,4-d]pyrimidine-4,6-diamine]	> 79%	> 79%	> 79%	> 79%	> 79%
Nc1nc(NC2Cc3ccccc3N(S(=O)(=O)c3cccc(NC(=O)Nc4cccc(Cl)c4F)c3)C2)c2cn[nH]c2n1 (centres unmarked) [Compound 221, 1-[3-({3-[(6-amino-1H-pyrazolo[3,4-d]pyrimidin-4-yl)amino]-3,4-dihydroquinolin-1(2H)-yl}sulfonyl)phenyl]-3-(3-chloro-2-fluorophenyl)urea]	> 79%	> 79%	> 79%	> 79%	> 79%
Nc1nc(NC2Cc3ccccc3N(S(=O)(=O)c3cccc(NC(=O)Nc4c(F)cccc4F)c3)C2)c2cn[nH]c2n1 (centres unmarked) [Compound 203, 1-[3-({3-[(6-amino-1H-pyrazolo[3,4-d]pyrimidin-4-yl)amino]-3,4-dihydroquinolin-1(2H)-yl}sulfonyl)phenyl]-3-(2,6-difluorophenyl)urea]	< 50%	< 50%	< 50%	< 50%	50 to 79%
Nc1nc(NC2CCN(S(=O)(=O)c3ccc(Cl)cc3)c3ccccc3C2)c2cn[nH]c2n1 (centres unmarked) [Compound 171, N4-{1-[(4-chlorophenyl)sulfonyl]-2,3,4,5-tetrahydro-1H-1-benzazepin-4-yl}-1H-pyrazolo[3,4-d]pyrimidine-4,6-diamine]	< 50%	< 50%	< 50%	< 50%	< 50%
Nc1nc(NC2Cc3ccccc3N(C(=O)c3ccc(C(F)(F)F)c(F)c3)C2)c2cn[nH]c2n1 (centres unmarked) [Compound 100, (3-(6-amino-1H-pyrazolo[3,4-d]pyrimidin-4-ylamino)-3,4-dihydroquinolin-1(2H)-yl)(3-fluoro-4-(trifluoromethyl)phenyl)methanone]	< 50%	< 50%	< 50%	< 50%	< 50%
COc1ccc(CCNC(=O)N2CC(Nc3nc(N)nc4[nH]ncc34)Cc3ccccc32)cc1 (centres unmarked) [Compound 116, 3-(6-amino-1H-pyrazolo[3,4-d]pyrimidin-4-ylamino)-N-(4-methoxyphenethyl)-3,4-dihydroquinoline-1(2H)-carboxamide]	< 50%	< 50%	< 50%	< 50%	< 50%
COc1ccc(OC)c(S(=O)(=O)N2CCC(Nc3nc(N)nc4[nH]ncc34)Cc3ccccc32)c1 (centres unmarked) [Compound 176, N4-{1-[(2,5-dimethoxyphenyl)sulfonyl]-2,3,4,5-tetrahydro-1H-1-benzazepin-4-yl}-1H-pyrazolo[3,4-d]pyrimidine-4,6-diamine]	< 50%	< 50%	< 50%	< 50%	< 50%
Nc1nc(NC2Cc3ccccc3N(S(=O)(=O)c3cccc(NC(=O)Nc4cc(F)cc(C(F)(F)F)c4)c3)C2)c2cn[nH]c2n1 (centres unmarked) [Compound 217, 1-[3-({3-[(6-amino-1H-pyrazolo[3,4-d]pyrimidin-4-yl)amino]-3,4-dihydroquinolin-1(2H)-yl}sulfonyl)phenyl]-3-[3-fluoro-5-(trifluoromethyl)phenyl]urea]	> 79%	> 79%	> 79%	> 79%	> 79%
CCOC(=O)c1ccc(NC(=O)N2CC(Nc3nc(N)nc4[nH]ncc34)Cc3ccccc32)cc1 (centres unmarked) [Compound 114, ethyl 4-(3-(6-amino-1H-pyrazolo[3,4-d]pyrimidin-4-ylamino)-1,2,3,4-tetrahydroquinoline-1-carboxamido)benzoate]	> 79%	< 50%	< 50%	< 50%	< 50%
COc1ccccc1Oc1cccc(S(=O)(=O)N2CC(Nc3nc(N)nc4[nH]ncc34)Cc3ccccc32)c1 (centres unmarked) [Compound 77, N4-(1-(3-(2-methoxyphenoxy)phenylsulfonyl)-1,2,3,4-tetrahydroquinolin-3-yl)-1H-pyrazolo[3,4-d]pyrimidine-4,6-diamine]	< 50%	50 to 79%	< 50%	< 50%	< 50%
Nc1nc(NC2Cc3ccccc3N(S(=O)(=O)c3cccc(NC(=O)Nc4cc(C(F)(F)F)ccc4F)c3)C2)c2cn[nH]c2n1 (centres unmarked) [Compound 220, 1-[3-({3-[(6-amino-1H-pyrazolo[3,4-d]pyrimidin-4-yl)amino]-3,4-dihydroquinolin-1(2H)-yl}sulfonyl)phenyl]-3-[2-fluoro-5-(trifluoromethyl)phenyl]urea]	> 79%	> 79%	> 79%	> 79%	> 79%
Nc1nc(NC2Cc3ccccc3N(S(=O)(=O)c3cccc(NC(=O)Nc4ccccc4F)c3)C2)c2cn[nH]c2n1 (centres unmarked) [Compound 215, 1-[3-({3-[(6-amino-1H-pyrazolo[3,4-d]pyrimidin-4-yl)amino]-3,4-dihydroquinolin-1(2H)-yl}sulfonyl)phenyl]-3-(2-fluorophenyl)urea]				< 50%	
COc1cccc(S(=O)(=O)N2CC(Nc3nc(N)nc4[nH]ncc34)Cc3ccccc32)c1 (centres unmarked) [Compound 24, N4-(1-(3-methoxyphenylsulfonyl)-1,2,3,4-tetrahydroquinolin-3-yl)-1H-pyrazolo[3,4-d]pyrimidine-4,6-diamine]	< 50%	> 79%	< 50%	< 50%	< 50%
COc1ccc(CN2CC(Nc3nc(N)nc4[nH]ncc34)Cc3ccccc32)cc1OC1CCCC1 (centres unmarked) [Compound 162, N4-{1-[3-(cyclopentyloxy)-4-methoxybenzyl]-1,2,3,4-tetrahydroquinolin-3-yl}-1H-pyrazolo[3,4-d]pyrimidine-4,6-diamine]	< 50%	< 50%	< 50%	< 50%	< 50%
COc1ccc(-c2ccc(S(=O)(=O)N3CC(Nc4nc(N)nc5[nH]ncc45)Cc4ccccc43)cc2)cc1 (centres unmarked) [Compound 60, N4-(1-(4′-methoxybiphenyl-4-ylsulfonyl)-1,2,3,4-tetrahydroquinolin-3-yl)-1H-pyrazolo[3,4-d]pyrimidine-4,6-diamine]	< 50%	< 50%	< 50%	< 50%	< 50%
Nc1nc(NC2Cc3ccccc3N(S(=O)(=O)c3cccc(NC(=O)Nc4ccc(F)c(F)c4)c3)C2)c2cn[nH]c2n1 (centres unmarked) [Compound 207, 1-[3-({3-[(6-amino-1H-pyrazolo[3,4-d]pyrimidin-4-yl)amino]-3,4-dihydroquinolin-1(2H)-yl}sulfonyl)phenyl]-3-(3,4-difluorophenyl)urea]	> 79%	> 79%	> 79%	> 79%	> 79%
Nc1nc(NC2Cc3ccccc3N(C(=O)COc3ccccc3)C2)c2cn[nH]c2n1 (centres unmarked) [Compound 85, 1-(3-(6-amino-1H-pyrazolo[3,4-d]pyrimidin-4-ylamino)-3,4-dihydroquinolin-1(2H)-yl)-2-phenoxyethanone]	< 50%	< 50%	< 50%	< 50%	< 50%
Nc1nc(NC2Cc3ccccc3N(S(=O)(=O)c3ccc(-c4ccc(F)cc4)cc3)C2)c2cn[nH]c2n1 (centres unmarked) [Compound 65, N4-(1-(4′-fluorobiphenyl-4-ylsulfonyl)-1,2,3,4-tetrahydroquinolin-3-yl)-1H-pyrazolo[3,4-d]pyrimidine-4,6-diamine]	50 to 79%	> 79%	50 to 79%	50 to 79%	> 79%
N#Cc1cccc(CN2CC(Nc3nc(N)nc4[nH]ncc34)Cc3ccccc32)c1 (centres unmarked) [Compound 145, 3-({3-[(6-amino-1H-pyrazolo[3,4-d]pyrimidin-4-yl)amino]-3,4-dihydroquinolin-1(2H)-yl}methyl)benzonitrile]	> 79%	> 79%	> 79%	> 79%	> 79%
